The source made the active and inactive calls.
Key:
[1] = rise of 2N DNA cells, HeLa – IC50, dose response (AID 1117349); format: functional, cell-based
[2] = rise of 4N DNA cells, HeLa – IC50, dose response (AID 1117351); format: functional, cell-based
[3] = HPDE-C7 pancreatic duct cell viability loss – fluorescence, HTS (AID 430); format: functional, cell-based; settings: Homo sapiens
[4] = viability loss of HPDE-C7K cells – cell-based, fluorescence, HTS, primary screen (AID 431); format: functional; settings: Homo sapiens
[5] = viability loss in human Jurkat cells – cell-based, luminescence, cytotoxicity control for P. falciparum gametocyte viability project, dose response (AID 1117277); format: functional;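 also: potency reflects loss of cellular ATP meaning fewer viable cells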
[6] = viability inhibitors of stage V gametocytes – luminescence, dose response (AID 1117278); format: functional, cell-based;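 also: gametocytes exposed to compound for 24 hours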
[7] = biological target: T1, Bcl-2-related protein A1 (Mus musculus, UniProt Q07440); experiment: small-molecule antagonists of Bfl-1/BH3 interaction – biochemical, TR-FRET, mouse Bfl-1, confirmation (AID 621);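 also: TR-FRET binding of GST-Bfl-1 to FITC-labelled Bid peptide via terbium antibody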
T1 sequence (Q07440 whole entry): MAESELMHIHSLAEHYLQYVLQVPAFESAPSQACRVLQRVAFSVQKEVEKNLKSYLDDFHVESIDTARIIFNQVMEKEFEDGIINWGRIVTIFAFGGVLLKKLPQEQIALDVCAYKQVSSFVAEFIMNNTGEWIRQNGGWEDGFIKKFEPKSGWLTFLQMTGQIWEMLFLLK

[8] = biological target: T1, Bcl-2-related protein A1; experiment: Bfl-1 binding inhibitors, SAR follow-up, biochemical, fluorescence polarization (AID 1070)
[9] = biological target: Glyceraldehyde-3-phosphate dehydrogenase (Homo sapiens, UniProt P04406)
[10] = Dd2 malaria parasite growth inhibition potency – SYBR Green, dry powder samples, dose response (AID 1159566); format: functional, cell-based;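 also: potency for growth inhibition with lower SYBR green DNA signal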
[11] = growth inhibition of PfATP4-mutant resistant parasites – NITD609-resistant line, SYBR Green, dry powder, dose response (AID 1159571); format: functional, cell-based;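 also: parasites synchronized at ring stage by sorbitol before testing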
[12] = P. falciparum Dd2 growth inhibitors, dose response, SYBR Green, cherry-picked samples (AID 1159567); format: functional, cell-based
[13] = growth inhibition of yeast DHODH-expressing 3D7 parasites – SYBR Green, dry powder samples, dose response (AID 1159570); format: functional, cell-based;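 also: parasite growth measured after 72 hours of compound exposure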
[14] = biological target: Protein Tat (Human immunodeficiency virus type 1 group M subtype B (isolate HXB2)(HIV-1), UniProt P04608); format: functional;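 also: tat binding to TAR RNA read out by fluorescence polarization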
[15] = biological target: Sphingosine 1-phosphate receptor 2 (Homo sapiens, UniProt O95136); experiment: Dose Response Cell Based Assay for Agonists of the S1P2 Receptor of Purchased Analogues. [Related pubchem assays: 729, 843, 854, 736 ]; format: functional
[16] = Trypanosoma cruzi growth suppression in host cells – NIH3T3 host cells, beta-gal luminescence, confirmation (AID 2044); format: functional, cell-based;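 also: intracellular parasites grown in NIH/3T3 mouse fibroblasts as host cells; luminescent beta-galactosidase reporter signal from transgenic T. cruzi replicating inside host cells; inhibitors lower the luminescence signal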
[17] = NIH3T3 cell viability loss – ATP luminescence, mouse fibroblasts, counter-screen, dose response (AID 2010); format: functional, cell-based;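 also: cells exposed to compound for about 90 hours before reading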
[18] = cells
[19] = Luminescence Cell-Based Dose Confirmation HTS to Identify Activators of 5'UTR Stem-Loop Driven Alpha-Synuclein mRNA Translation in H4 Neuroglioblastoma Cells. [Related pubchem assays: 1829 (Project Summary), 1814 (Primary HTS)]; format: functional
[20] = biological target: T2, Estrogen receptor (Homo sapiens, UniProt P03372); experiment: ERα coactivator recruitment enhancers – biochemical, TR-FRET, ERα LBD, dose response (AID 737)
T2 sequence (P03372 whole entry): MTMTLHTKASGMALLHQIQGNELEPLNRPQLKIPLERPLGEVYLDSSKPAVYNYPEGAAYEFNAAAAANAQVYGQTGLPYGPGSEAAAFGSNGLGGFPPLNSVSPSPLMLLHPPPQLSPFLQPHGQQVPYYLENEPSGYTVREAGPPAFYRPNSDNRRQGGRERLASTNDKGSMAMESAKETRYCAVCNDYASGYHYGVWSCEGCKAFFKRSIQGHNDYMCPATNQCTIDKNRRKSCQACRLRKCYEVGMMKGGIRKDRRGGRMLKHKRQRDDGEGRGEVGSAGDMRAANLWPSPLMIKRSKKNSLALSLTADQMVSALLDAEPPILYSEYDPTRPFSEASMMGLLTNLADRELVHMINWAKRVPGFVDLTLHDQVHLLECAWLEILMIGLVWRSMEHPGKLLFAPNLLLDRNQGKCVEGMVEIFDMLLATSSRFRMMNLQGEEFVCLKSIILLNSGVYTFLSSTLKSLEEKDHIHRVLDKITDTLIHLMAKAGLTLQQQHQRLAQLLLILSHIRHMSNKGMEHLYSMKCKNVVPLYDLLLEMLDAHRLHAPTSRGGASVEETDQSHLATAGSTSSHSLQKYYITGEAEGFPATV

[21] = Luminescence Cell-Based Dose Response HTS to Identify Activators of Luciferase Translation or Activity in H4 […] Cells. [Related pubchem assays: 1829 (Project Summary), 1814 (Primary HTS)]; format: functional
[22] = viability of uninfected HEp-2 cells – cell-based, HTS, cytotoxicity control for RSV inhibitor project, dose response (AID 2410); format: functional; settings: human respiratory syncytial virus
[23] = test system: H4; experiment: Luminescence Cell-Based Dose Response HTS to Identify Activators of 5'UTR Stem-Loop Driven Prion Protein mRNA Translation in H4 Neuroglioblastoma Cells. [Related pubchem assays: 1829 (Project Summary), 1814 (Primary HTS)]; format: functional; settings: Homo sapiens
[24] = biological target: RNA-editing ligase 1, mitochondrial (Trypanosoma brucei brucei, UniProt P86926); experiment: inhibition of trypanosome RNA editing ligase – biochemical, fluorescence, Trypanosoma brucei, dose response (AID 1117295); format: functional
[25] = viability loss in HeLa cells – cytotoxicity control for MgcRacGAP inhibitor project, dose response (AID 624300); format: functional
[26] = biological target: T3, Rac GTPase-activating protein 1 (Homo sapiens, UniProt Q9H0H5); experiment: blockers of MgcRacGAP-driven Rac1 GTP hydrolysis – biochemical, ADP Hunter fluorescence, primary and confirmatory, confirmation (AID 624330); format: functional
T3 sequence (Q9H0H5 whole entry): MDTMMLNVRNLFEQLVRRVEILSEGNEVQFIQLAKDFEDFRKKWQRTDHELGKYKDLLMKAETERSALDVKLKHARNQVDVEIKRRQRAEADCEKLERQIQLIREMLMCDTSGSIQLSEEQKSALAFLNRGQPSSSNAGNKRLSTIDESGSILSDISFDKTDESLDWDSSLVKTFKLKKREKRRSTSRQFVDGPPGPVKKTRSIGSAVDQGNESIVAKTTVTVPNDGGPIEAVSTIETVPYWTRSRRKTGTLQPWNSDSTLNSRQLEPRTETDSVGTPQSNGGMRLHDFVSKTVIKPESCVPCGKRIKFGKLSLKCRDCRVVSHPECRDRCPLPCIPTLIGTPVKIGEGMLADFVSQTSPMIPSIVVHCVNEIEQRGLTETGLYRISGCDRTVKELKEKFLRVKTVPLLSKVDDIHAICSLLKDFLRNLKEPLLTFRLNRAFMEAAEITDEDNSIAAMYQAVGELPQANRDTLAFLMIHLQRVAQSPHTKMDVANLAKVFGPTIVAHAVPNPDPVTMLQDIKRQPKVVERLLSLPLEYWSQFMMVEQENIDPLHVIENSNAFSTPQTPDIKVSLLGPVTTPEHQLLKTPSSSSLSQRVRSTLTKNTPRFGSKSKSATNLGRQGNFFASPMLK

[27] = biological target: T4, DNA repair protein RAD52 homolog (Homo sapiens, UniProt P43351); format: functional, biochemical
T4 sequence (P43351 whole entry): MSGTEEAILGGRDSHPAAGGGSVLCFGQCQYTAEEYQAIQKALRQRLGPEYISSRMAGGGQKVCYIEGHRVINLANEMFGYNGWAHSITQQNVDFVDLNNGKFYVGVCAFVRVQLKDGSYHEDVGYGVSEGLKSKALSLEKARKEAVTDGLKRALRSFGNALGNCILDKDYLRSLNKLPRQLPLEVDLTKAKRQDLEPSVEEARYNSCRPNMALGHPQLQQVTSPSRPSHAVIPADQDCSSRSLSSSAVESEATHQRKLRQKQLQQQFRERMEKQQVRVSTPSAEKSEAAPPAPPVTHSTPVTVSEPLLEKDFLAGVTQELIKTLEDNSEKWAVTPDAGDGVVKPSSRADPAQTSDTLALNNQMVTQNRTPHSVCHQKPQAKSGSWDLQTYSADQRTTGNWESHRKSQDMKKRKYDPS

[28] = biological target: T5, Zinc finger protein mex-5 (Caenorhabditis elegans, UniProt Q9XUB2); experiment: potency of MEX-5 RNA-binding blockers – biochemical, C. elegans, fluorescence polarization, dose response (AID 1960)
T5 sequence (Q9XUB2 whole entry): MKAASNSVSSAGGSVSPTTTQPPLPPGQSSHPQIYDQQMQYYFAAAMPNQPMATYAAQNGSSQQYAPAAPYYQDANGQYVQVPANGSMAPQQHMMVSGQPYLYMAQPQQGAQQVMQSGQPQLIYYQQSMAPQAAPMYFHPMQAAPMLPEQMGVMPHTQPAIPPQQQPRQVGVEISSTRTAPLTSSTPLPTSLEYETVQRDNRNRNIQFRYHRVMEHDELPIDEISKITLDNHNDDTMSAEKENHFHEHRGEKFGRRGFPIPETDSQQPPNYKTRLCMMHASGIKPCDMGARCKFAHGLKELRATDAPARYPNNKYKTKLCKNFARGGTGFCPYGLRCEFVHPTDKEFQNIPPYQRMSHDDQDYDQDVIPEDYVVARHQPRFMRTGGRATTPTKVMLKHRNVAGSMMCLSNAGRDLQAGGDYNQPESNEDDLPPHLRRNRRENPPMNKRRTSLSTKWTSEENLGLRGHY

[29] = biological target: T6, RNA-binding protein pos-1 (Caenorhabditis elegans, UniProt G5EF15); experiment: disruptors of C. elegans POS-1 RNA interaction – biochemical, fluorescence polarization, dose response (AID 1964);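 also: purified POS-1 fused to maltose binding protein made in E. coli; potency of compounds blocking POS-1 binding to fluorescent RNA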
T6 sequence (G5EF15 whole entry): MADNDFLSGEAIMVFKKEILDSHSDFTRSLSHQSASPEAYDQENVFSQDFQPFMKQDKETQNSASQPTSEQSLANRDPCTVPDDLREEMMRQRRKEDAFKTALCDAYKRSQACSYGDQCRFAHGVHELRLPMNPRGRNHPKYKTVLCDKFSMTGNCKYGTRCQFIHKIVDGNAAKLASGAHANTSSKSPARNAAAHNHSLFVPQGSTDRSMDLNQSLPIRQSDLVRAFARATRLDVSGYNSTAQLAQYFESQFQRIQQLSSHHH

[30] = biological target: Nonstructural protein 1 (Influenza A virus, UniProt Q194T2); format: functional, Influenza A virus (A/California/07/2009(H1N1))
[31] = biological target: Major prion protein (Homo sapiens, UniProt P04156); format: functional, cell-based
[32] = cells; remark: listed apart in the source
[33] = biological target: NS3 (Hepatitis C virus, UniProt A3EZJ3); experiment: PubChem AID 2173; design: species or system Hepacivirus hominis
[34] = biological target: Peroxisome proliferator-activated receptor gamma/Nuclear receptor coactivator 3 (Homo sapiens, UniProt P37231); format: functional;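 also: agonist potency for raising coactivator recruitment to the receptor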
[35] = biological target: Peroxisome proliferator-activated receptor gamma/Nuclear receptor coactivator 2 (Homo sapiens, UniProt P37231); format: functional;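 also: agonist potency for raising coactivator recruitment to the receptor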
[36] = biological target: Peroxisome proliferator-activated receptor gamma/Nuclear receptor coactivator 1 (Homo sapiens, UniProt P37231); format: functional;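 also: agonist potency as compounds enhance coactivator SRC-1 recruitment to PPARgamma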
Sequence of Peroxisome proliferator-activated receptor gamma/Nuclear receptor coactivator 1 (P37231 whole entry): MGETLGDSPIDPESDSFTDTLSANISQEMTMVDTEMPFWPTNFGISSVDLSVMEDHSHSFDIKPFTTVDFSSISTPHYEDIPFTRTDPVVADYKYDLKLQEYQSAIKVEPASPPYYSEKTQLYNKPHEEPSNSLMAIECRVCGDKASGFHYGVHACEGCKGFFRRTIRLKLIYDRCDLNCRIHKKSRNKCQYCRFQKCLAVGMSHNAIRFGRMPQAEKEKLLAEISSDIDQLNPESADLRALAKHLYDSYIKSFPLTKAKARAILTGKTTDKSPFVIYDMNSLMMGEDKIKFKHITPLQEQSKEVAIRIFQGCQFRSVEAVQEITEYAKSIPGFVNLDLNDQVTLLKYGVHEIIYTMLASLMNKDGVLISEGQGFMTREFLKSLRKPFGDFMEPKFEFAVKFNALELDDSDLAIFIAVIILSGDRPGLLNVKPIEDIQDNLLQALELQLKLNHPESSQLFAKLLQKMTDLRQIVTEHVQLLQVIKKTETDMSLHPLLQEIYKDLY
Sequence of Peroxisome proliferator-activated receptor gamma/Nuclear receptor coactivator 1 (Q15788 whole entry, further chain): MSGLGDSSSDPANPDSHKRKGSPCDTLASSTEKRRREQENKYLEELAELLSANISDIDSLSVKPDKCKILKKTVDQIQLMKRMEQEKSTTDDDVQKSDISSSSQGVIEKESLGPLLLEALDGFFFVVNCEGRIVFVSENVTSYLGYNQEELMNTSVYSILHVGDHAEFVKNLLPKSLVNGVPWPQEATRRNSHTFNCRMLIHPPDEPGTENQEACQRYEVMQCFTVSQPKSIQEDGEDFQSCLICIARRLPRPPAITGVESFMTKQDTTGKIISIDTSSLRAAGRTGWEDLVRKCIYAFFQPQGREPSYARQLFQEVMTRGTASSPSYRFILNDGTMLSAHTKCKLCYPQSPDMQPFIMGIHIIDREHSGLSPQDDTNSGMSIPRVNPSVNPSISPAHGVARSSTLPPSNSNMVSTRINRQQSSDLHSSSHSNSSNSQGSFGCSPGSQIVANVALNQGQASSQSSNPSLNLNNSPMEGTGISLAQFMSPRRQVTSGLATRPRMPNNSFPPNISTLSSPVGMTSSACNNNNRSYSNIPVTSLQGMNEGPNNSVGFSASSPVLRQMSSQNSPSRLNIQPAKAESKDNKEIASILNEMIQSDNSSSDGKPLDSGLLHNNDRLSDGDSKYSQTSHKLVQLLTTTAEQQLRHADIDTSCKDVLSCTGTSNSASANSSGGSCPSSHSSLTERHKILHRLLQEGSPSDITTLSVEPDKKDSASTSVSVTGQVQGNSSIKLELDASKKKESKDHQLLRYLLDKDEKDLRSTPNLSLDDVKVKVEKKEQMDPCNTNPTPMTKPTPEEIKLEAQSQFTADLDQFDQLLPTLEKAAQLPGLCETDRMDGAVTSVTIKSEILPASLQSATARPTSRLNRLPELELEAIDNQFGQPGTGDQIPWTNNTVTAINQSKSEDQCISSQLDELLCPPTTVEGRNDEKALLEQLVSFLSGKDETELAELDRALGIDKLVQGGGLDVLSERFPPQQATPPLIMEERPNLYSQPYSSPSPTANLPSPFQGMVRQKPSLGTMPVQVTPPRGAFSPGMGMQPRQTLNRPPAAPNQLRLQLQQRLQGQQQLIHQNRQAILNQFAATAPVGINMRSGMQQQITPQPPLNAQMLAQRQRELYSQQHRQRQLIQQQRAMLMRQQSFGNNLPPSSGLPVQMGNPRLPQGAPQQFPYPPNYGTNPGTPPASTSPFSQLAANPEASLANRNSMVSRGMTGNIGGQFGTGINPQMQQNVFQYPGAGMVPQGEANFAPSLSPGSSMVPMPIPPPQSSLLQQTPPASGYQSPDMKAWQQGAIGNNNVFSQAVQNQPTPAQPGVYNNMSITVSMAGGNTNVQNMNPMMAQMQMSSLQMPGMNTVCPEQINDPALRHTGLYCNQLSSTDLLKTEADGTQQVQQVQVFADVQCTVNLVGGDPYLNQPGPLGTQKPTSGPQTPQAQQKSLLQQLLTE

Sequence of Sphingosine 1-phosphate receptor 2 (O95136 whole entry): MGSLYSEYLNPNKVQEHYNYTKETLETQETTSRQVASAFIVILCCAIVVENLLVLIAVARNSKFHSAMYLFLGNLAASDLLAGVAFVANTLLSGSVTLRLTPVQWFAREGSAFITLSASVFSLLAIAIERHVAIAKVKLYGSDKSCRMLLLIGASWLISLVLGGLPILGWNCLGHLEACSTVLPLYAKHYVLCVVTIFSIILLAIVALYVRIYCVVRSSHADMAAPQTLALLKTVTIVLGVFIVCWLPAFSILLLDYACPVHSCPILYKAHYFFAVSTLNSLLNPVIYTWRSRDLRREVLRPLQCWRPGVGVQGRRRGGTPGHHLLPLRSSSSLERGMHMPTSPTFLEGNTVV
Sequence of Nonstructural protein 1 (Q194T2 whole entry): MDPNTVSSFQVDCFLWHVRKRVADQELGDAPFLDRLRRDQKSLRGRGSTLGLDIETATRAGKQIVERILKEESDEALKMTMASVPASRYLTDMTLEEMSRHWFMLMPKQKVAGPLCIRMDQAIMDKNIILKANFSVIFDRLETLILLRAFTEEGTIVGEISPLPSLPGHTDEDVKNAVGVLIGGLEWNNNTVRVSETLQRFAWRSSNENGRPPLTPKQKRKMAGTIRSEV
Sequence of Peroxisome proliferator-activated receptor gamma/Nuclear receptor coactivator 2 (P37231 whole entry): as the sequence (P37231 whole entry) above
Sequence of Peroxisome proliferator-activated receptor gamma/Nuclear receptor coactivator 2 (Q15596 whole entry, further chain): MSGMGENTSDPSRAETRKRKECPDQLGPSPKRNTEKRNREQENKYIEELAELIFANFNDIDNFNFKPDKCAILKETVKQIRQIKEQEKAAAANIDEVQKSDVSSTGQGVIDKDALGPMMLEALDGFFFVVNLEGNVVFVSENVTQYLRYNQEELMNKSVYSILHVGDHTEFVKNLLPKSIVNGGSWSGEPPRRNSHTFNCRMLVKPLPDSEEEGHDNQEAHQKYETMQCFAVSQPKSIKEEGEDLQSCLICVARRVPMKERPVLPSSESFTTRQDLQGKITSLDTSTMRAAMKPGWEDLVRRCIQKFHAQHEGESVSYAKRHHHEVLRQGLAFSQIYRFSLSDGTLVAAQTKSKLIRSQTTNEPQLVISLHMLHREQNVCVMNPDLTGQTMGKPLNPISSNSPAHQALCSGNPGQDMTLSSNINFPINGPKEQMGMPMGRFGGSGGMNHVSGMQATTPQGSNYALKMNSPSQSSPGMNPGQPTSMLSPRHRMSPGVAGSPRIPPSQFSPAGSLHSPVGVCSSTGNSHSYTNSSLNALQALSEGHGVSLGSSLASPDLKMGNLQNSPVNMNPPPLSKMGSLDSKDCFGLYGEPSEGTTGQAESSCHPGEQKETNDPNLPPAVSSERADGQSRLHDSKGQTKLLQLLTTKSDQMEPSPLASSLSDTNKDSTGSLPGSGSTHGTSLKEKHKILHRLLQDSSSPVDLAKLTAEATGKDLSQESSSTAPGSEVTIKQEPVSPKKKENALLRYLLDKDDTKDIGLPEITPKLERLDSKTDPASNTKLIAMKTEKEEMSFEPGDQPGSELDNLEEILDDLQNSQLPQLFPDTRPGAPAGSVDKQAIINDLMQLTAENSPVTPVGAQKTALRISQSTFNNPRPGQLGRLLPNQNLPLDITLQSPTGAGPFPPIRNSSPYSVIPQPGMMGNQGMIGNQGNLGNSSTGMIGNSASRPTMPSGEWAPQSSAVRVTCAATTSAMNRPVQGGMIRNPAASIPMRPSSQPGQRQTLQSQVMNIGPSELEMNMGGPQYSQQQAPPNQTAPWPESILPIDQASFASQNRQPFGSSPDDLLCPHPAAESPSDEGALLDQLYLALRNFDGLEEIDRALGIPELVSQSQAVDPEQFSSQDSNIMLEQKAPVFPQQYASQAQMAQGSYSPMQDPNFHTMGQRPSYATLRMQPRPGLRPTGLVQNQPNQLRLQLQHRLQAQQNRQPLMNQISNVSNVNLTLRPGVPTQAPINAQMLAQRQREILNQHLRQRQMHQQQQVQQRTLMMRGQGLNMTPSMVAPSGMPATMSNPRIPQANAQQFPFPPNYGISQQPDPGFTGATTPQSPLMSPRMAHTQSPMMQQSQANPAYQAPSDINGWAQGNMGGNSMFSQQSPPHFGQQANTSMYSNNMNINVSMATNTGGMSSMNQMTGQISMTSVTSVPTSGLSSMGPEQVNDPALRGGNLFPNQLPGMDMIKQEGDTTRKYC
Sequence of RNA-editing ligase 1, mitochondrial (P86926 whole entry): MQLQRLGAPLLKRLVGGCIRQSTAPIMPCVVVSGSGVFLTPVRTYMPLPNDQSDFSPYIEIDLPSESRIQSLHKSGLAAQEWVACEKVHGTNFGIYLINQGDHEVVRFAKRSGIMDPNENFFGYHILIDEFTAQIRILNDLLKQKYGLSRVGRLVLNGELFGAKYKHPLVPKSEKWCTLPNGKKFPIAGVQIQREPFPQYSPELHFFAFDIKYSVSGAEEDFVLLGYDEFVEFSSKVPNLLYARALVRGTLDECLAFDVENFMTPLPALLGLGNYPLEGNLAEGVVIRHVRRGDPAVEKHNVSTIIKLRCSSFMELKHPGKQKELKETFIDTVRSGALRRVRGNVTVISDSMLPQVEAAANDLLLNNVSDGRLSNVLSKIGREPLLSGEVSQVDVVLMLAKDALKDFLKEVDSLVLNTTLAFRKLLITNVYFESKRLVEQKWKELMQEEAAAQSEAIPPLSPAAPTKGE

## Nc1nc(=O)n([C@@H]2O[C@H](CO)[C@@H](O)[C@@H]2F)cc1I [FIACITABINE]
[1]
  IC50: > 10 µM (inactive)
[2]
  IC50: > 10 µM (inactive)

## Cc1ccc(C(=O)OCC(=O)Nc2sc3c(c2C#N)CCCCC3)cc1NC(=O)c1ccco1
[3]
  EC50: > 20 µM (not active)
[4]
  EC50: > 20 µM (not active)

## CCN1CCN(C(=O)c2ccc3c(=O)n(C4CCCC4)c(=S)[nH]c3c2)CC1
[5]
  IC50: > 83.3 µM (inactive)
[6]
  IC50: > 109 µM (inactive)

## O=C1C(Cl)=C(Cl)C(=O)N1c1ccc(Cl)cc1Cl
[7]
  IC50: 0.74 µM (active)
[8]
  IC50: 1.64 µM (active)
[9]
  IC50: > 100 µM (not active)

## CCS(=O)(=O)N1CCC2(CC1)CN(S(=O)(=O)c1ccc(C)cc1)[C@@H](CO)c1[nH]c3cc(OC)ccc3c12
[10]
  AC50: 0.88 µM (active)
[11]
  AC50: 0.738 µM (active)
[12]
  AC50: 1.3 µM (active)
[13]
  AC50: 1.04 µM (active)

## CC(C)(Oc1ccc(Cl)cc1)C(=O)NCc1ccco1
[14]
  IC50: > 100 µM (active)

## Cc1cc(C(=O)CSc2nnc(C3CC3)n2C)c(C)n1Cc1ccccc1
[15]
  EC50: > 30 µM (not active)

## O=[N+]([O-])c1cccc(S(=O)(=O)c2ccc(N3CCCCC3)c([N+](=O)[O-])c2)c1
[5]
  IC50: > 83.3 µM (inactive)
[6]
  IC50: > 109 µM (inactive)

## CCCCN(CC)CCNC(=O)c1nn(-c2ccc(OC)cc2)c(=O)c2c1c1ccccc1n2C
[16]
  EC50: < 0.1 µM (active)
[17]
  EC50: > 60 µM (not active)
[18]
  EC50: 0.207 µM (active)

## Cc1cc(C(=O)CN2C(=O)NC3(CCOc4ccccc43)C2=O)c(C)n1Cc1ccccc1 (stereo not drawn)
[15]
  EC50: > 30 µM (not active)

## C[C@H]1CCC[C@@H](O)CCC/C=C/c2cc(O)cc(O)c2C(=O)O1
[19]
  EC50: 15.3 µM (active)
[20]
  EC50: 9.22 µM (active)
[21]
  EC50: > 120 µM (not active)
[22]
  CC50: 8.71 µM (active)
[23]
  EC50: > 120 µM (not active)

## Cn1c(N=Nc2ccc(N3CCOCC3)cc2)[n+](C)c2ccccc21
[24]
  IC50: 34 µM (inactive)
[25]
  CC50: 100 µM (active)
[26]
  IC50: 26 µM (active)
[27]
  AC50: 2.36 µM (active)
[28]
  EC50: 219 µM (active)
[29]
  EC50: > 300 µM (not active)
[30]
  IC50: 8.01 µM (active)

## CCCOc1ccc(C(=O)C2=C(O)C(=O)N(c3ccccn3)C2c2ccccc2F)cc1C (stereo not drawn)
[31]
  IC50: 2.96 µM (active)
[32]
  IC50: > 138 µM (inactive)
[33]
  IC50: 5.77 µM (active)

## COC(=O)c1c(NC(=O)Cn2cnc([N+](=O)[O-])n2)sc2c1CCC(C)C2 (stereo not drawn)
[16]
  EC50: < 0.1 µM (active)
[17]
  EC50: > 60 µM (inconclusive)
[18]
  EC50: 0.112 µM (active)

## COC(=O)c1ccc(COC(=O)c2ccc(S(=O)(=O)N3CCC(C)CC3)cc2)o1
[34]
  EC50: > 79.4 µM (not active)
[20]
  EC50: 12.6 µM (not active)
[35]
  EC50: > 79.4 µM (not active)
[36]
  EC50: > 79.4 µM (not active)
